Test results taken from US20250206761A1, “HALOINDOLE MACROCYCLIC COMPOUNDS FOR THE TREATMENT OF CANCER” (Hoffmann-La Roche Inc., priority 2022, published 2025).

Key:
[1] = system: AGS (ATCC-CRL-1739) cells; assay: Cell viability assay, G12D (AGS); format: cell-based, human; conditions: Homo sapiens, KRAS cell viability, 72 hrs, Cell Counting Kit-8
Summary of the method: (§1)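 Cells were seeded at 5,000 cells/well (NCI-H358) or 2,000 cells/well (AGS, SW620), incubated overnight, then treated with compounds in 0.5% DMSO final for 72 hrs. CCK-8 was added and OD450 minus OD650 read after 2 hrs; IC50 came from a 4-parameter sigmoidal fit.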

SW620 (ATCC-CCL-227) = assay: Cell viability assay, G12V (SW620); format: cell-based, human; conditions: Homo sapiens, SW-620; KRAS cell viability, SW620, 72 hrs, Cell Counting Kit-8
Summary of the method: as §1

[2] = system: NCI-H358 (ATCC-CRL5807) cells; assay: Cell viability assay, G12C (NCI-H358); format: cell-based, human; conditions: Homo sapiens; KRAS cell viability, NCI-H358, 72 hrs, Cell Counting Kit-8
Summary of the method: as §1

[3] = molecular target: KRAS G12V binding to BRAF (Homo sapiens (Human), UniProt P01116+P62937, G12V); assay: KRAS-BRAF with CYPA (500 nM) interaction assay (TR-FRET), G12V; format: biochemical
Chain of KRAS G12V binding to BRAF (P01116-2 other isoform, or with tags, fused parts or gaps G12V): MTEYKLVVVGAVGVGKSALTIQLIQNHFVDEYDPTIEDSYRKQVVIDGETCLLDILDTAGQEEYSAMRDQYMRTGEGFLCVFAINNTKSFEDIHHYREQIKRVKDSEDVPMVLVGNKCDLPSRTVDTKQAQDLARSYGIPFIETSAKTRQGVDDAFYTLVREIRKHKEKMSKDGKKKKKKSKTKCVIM
Chain of KRAS G12V binding to BRAF (P62937 whole entry): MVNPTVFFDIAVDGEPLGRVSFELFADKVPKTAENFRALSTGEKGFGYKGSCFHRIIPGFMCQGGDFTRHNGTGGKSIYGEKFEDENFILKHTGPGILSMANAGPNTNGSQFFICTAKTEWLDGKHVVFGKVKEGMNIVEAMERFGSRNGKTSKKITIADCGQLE
Summary of the method: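 A TR-FRET assay measured how compound, in the presence of CYPA, disrupts binding of GMPPNP-loaded 6His-KRAS G12V to BRAF. The buffer contained 25 mM HEPES PH=7.4, 0.002% Tween20, 0.1% BSA, 100 mM NaCl, 5 mM MgCl2 and 10 μM GMPPNP. Compounds ran as a 16-point 3-fold dilution series from 10 μM for 3 hours.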

KRAS G12C-BRAF complex = KRAS G12C-BRAF complex (Homo sapiens (Human), UniProt P01116+P62937, G12C); assay: KRAS G12C-BRAF NanoBit assay; format: cell-based; conditions: HEK293 cells, 3 hours of incubation
Chain of KRAS G12C-BRAF complex (P01116-2 other isoform, or with tags, fused parts or gaps G12C): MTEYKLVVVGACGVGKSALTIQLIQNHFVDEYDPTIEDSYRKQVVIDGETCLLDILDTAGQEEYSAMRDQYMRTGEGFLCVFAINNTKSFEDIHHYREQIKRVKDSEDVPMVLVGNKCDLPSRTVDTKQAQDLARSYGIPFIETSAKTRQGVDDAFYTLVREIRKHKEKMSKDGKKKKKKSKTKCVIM
Chain of KRAS G12C-BRAF complex (P62937 whole entry): as the sequence (P62937 whole entry) above
Summary of the method: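 Stable HEK293 pool co-expressing SmBit-KRAS G12C and BRAF RBD-LgBit; 10,000 cells/well incubated 3 h with compound, 16-point 3-fold dilution from 30 μM final. Live-cell Nano-Glo substrate added, luminescence read at 20 min; disruption seen as luminescence decrease vs DMSO.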

[4] = system: phosphorylation of ERK, KRAS G12C in NCJ-H358 cells; assay: pERK inhibition assay, KRAS G12C; format: cell-based, human; conditions: Homo sapiens, 4 hours
Summary of the method: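 Seeding densities differed per line: 30,000/well for NCJ-H358 and SW620, 20,000/well for AGS, all in RPMI-1640 plus 10% FBS. After attachment overnight, compound was applied for 4 h. Phospho-ERK was then quantified by in-cell ELISA (OD450), with IC50 fitted sigmoidally.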

Row | Compound | IC50 [1] [nM] | IC50 (SW620 (ATCC-CCL-227)) [nM] | IC50 [2] [nM] | IC50 [3] [nM] | IC50 (KRAS G12C-BRAF complex) [nM] | IC50 [4] [nM]
1 | CO[C@@H](C)c1ncc(N2CCN(C)CC2)cc1-c1c2c3cc(c(F)cc3n1CC(F)(F)F)-c1cc(O)cc(c1)C[C@H](NC(=O)[C@H](C(C)C)N(C)C(=O)[C@H]1CCN(C(=O)[C@H](F)Cl)C1)C(=O)N1CCC[C@H](N1)C(=O)OCC(C)(C)C2 (atropisomer, axis not shown; (M)) [Example 8, (3S)-1-[(2R)-2-chloro-2-fluoro-acetyl]-N-[(1S)-1-[[(8S,14S)-25-fluoro-4-hydroxy-(21M)-21-[2-[(1S)-1-methoxyethyl]-5-(4-methylpiperazin-1-yl)-3-pyridyl]-18,18-dimethyl-9,15-dioxo-22-(2,2,2-trifluoroethyl)-16-oxa-10,22,28-triazapentacyclo[18.5.2.1^2,6.1^10,14.0^23,27]nonacosa-1(26),2,4,6(29),20,23(27),24-heptaen-8-yl]carbamoyl]-2-methyl-propyl]-N-methyl-pyrrolidine-3-carboxamide] | 1560 | 175 | 3 | 10 | 43 | 2
2 | CO[C@@H](C)c1ncc(N2CCN(C)CC2)cc1-c1c2c3cc(c(C)cc3n1CC(F)(F)F)-c1csc(n1)C[C@H](NC(=O)[C@H](C(C)C)N(C)C(=O)C1(F)CCN(C(=O)[C@H](F)Cl)CC1)C(=O)N1CCC[C@H](N1)C(=O)OCC(C)(C)C2 (atropisomer, axis not shown; (M)) [Example 9, 1-[(2R)-2-chloro-2-fluoro-acetyl]-4-fluoro-N-[(1S)-1-[[(7S,13S)-(20M)-20-[2-[(1S)-1-methoxyethyl]-5-(4-methylpiperazin-1-yl)-3-pyridyl]-17,17,24-trimethyl-8,14-dioxo-21-(2,2,2-trifluoroethyl)-15-oxa-4-thia-9,21,27,28-tetrazapentacyclo[17.5.2.1^2,5.1^9,13.0^22,26]octacosa-1(25),2,5(28),19,22(26),23-hexaen-7-yl]carbamoyl]-2-methyl-propyl]-N-methyl-piperidine-4-carboxamide] | 505 | 28 | 7 | > 10000 | 64 | 3
3 | CO[C@@H](C)c1ncc(N2CCN(C)CC2)cc1-c1c2c3cc(c(F)cc3n1CC(F)(F)F)-c1csc(n1)C[C@H](NC(=O)[C@H](C(C)C)N(C)C(=O)C1(F)CCN(C(=O)[C@H](F)Cl)CC1)C(=O)N1CCC[C@H](N1)C(=O)OCC(C)(C)C2 (atropisomer, axis not shown; (M)) [Example 10, 1-[(2R)-2-chloro-2-fluoro-acetyl]-4-fluoro-N-[(1S)-1-[[(7S,13S)-24-fluoro-(20M)-20-[2-[(1S)-1-methoxyethyl]-5-(4-methylpiperazin-1-yl)-3-pyridyl]-17,17-dimethyl-8,14-dioxo-21-(2,2,2-trifluoroethyl)-15-oxa-4-thia-9,21,27,28-tetrazapentacyclo[17.5.2.1^2,5.1^9,13.0^22,26]octacosa-1(25),2,5(28),19,22(26),23-hexaen-7-yl]carbamoyl]-2-methyl-propyl]-N-methyl-piperidine-4-carboxamide] | 105 | 8 | < 1 | 136 | 4 | < 1
4 | CO[C@@H](C)c1ncc(N2CCN(C)CC2)cc1-c1c2c3cc(c(F)cc3n1CC(F)(F)F)-c1csc(n1)C[C@H](NC(=O)[C@H](C(C)C)N1CCCC3(CN(C(=O)[C@H](F)Cl)C3)C1=O)C(=O)N1CCC[C@H](N1)C(=O)OCC(C)(C)C2 (atropisomer, axis not shown; (M)) [Example 11, (2S)-2-[2-[(2R)-2-chloro-2-fluoro-acetyl]-5-oxo-2,6-diazaspiro[3.5]nonan-6-yl]-N-[(7S,13S)-24-fluoro-(20M)-20-[2-[(1S)-1-methoxyethyl]-5-(4-methylpiperazin-1-yl)-3-pyridyl]-17,17-dimethyl-8,14-dioxo-21-(2,2,2-trifluoroethyl)-15-oxa-4-thia-9,21,27,28-tetrazapentacyclo[17.5.2.1^2,5.1^9,13.0^22,26]octacosa-1(25),2,5(28),19,22(26),23-hexaen-7-yl]-3-methyl-butanamide] | 1880 | 29 | < 1 | 1030 | 5 | < 1
5 | CO[C@@H](C)c1ncc(N2CCN(C)CC2)cc1-c1c2c3c(F)c(ccc3n1CC(F)(F)F)-c1csc(n1)C[C@H](NC(=O)[C@H](C(C)C)N1CCCC3(CCN(C(=O)[C@H](F)Cl)CC3)C1=O)C(=O)N1CCC[C@H](N1)C(=O)OCC(C)(C)C2 (atropisomer, axis not shown; (M)) [Example 20, (2S)-2-[9-[(2R)-2-chloro-2-fluoro-acetyl]-1-oxo-2,9-diazaspiro[5.5]undecan-2-yl]-N-[(7S,13S)-25-fluoro-(20M)-20-[2-[(1S)-1-methoxyethyl]-5-(4-methylpiperazin-1-yl)-3-pyridyl]-17,17-dimethyl-8,14-dioxo-21-(2,2,2-trifluoroethyl)-15-oxa-4-thia-9,21,27,28-tetrazapentacyclo[17.5.2.1^2,5.1^9,13.0^22,26]octacosa-1(25),2,5(28),19,22(26),23-hexaen-7-yl]-3-methyl-butanamide] | 745 | 66 | 3 | 1780 | 47 | 5
6 | CCn1c(-c2cc(N3CCN(CC(F)(F)F)CC3)cnc2[C@H](C)OC)c2c3cc(c(F)cc31)-c1csc(n1)C[C@H](NC(=O)[C@H](C(C)C)N1CCC3(CN(C(=O)[C@H](F)Cl)C3)C1=O)C(=O)N1CCC[C@H](N1)C(=O)OCC(C)(C)C2 (atropisomer, axis not shown; (M)) [Example 37, (2S)-2-[2-[(2R)-2-chloro-2-fluoro-acetyl]-5-oxo-2,6-diazaspiro[3.4]octan-6-yl]-N-[(7S,13S)-21-ethyl-24-fluoro-(20M)-20-[2-[(1S)-1-methoxyethyl]-5-[4-(2,2,2-trifluoroethyl)piperazin-1-yl]-3-pyridyl]-17,17-dimethyl-8,14-dioxo-15-oxa-4-thia-9,21,27,28-tetrazapentacyclo[17.5.2.1^2,5.1^9,13.0^22,26]octacosa-1(25),2,5(28),19,22(26),23-hexaen-7-yl]-3-methyl-butanamide] | 159 | 114 | < 1 | 1360 | – | 3
7 | CCn1c(-c2cc(N3CCN(CC(F)(F)F)CC3)cnc2[C@H](C)OC)c2c3cc(c(F)cc31)-c1csc(n1)C[C@H](NC(=O)[C@H](C(C)C)N(C)C(=O)C1(F)CCN(C(=O)[C@H](F)Cl)CC1)C(=O)N1CCC[C@H](N1)C(=O)OCC(C)(C)C2 (atropisomer, axis not shown; (M)) [Example 49, 1-[(2R)-2-chloro-2-fluoro-acetyl]-N-[(1S)-1-[[(7S,13S)-21-ethyl-24-fluoro-(20M)-20-[2-[(1S)-1-methoxyethyl]-5-[4-(2,2,2-trifluoroethyl)piperazin-1-yl]-3-pyridyl]-17,17-dimethyl-8,14-dioxo-15-oxa-4-thia-9,21,27,28-tetrazapentacyclo[17.5.2.1^2,5.1^9,13.0^22,26]octacosa-1(25),2,5(28),19,22(26),23-hexaen-7-yl]carbamoyl]-2-methyl-propyl]-4-fluoro-N-methyl-piperidine-4-carboxamide] | 73 | 42 | < 1 | 577 | 8 | 3
8 | CCn1c(-c2cc(N3CCOCC3)cnc2[C@H](C)OC)c2c3cc(c(F)cc31)-c1csc(n1)C[C@H](NC(=O)[C@H](C(C)C)N1CC[C@]3(CCN(C(=O)[C@H](F)Cl)C3)C1=O)C(=O)N1CCC[C@H](N1)C(=O)OCC(C)(C)C2 (atropisomer, axis not shown; (M)) [Example 51, (2S)-2-[(5S)-7-[(2R)-2-chloro-2-fluoro-acetyl]-1-oxo-2,7-diazaspiro[4.4]nonan-2-yl]-N-[(7S,13S)-21-ethyl-24-fluoro-(20M)-20-[2-[(1S)-1-methoxyethyl]-5-morpholino-3-pyridyl]-17,17-dimethyl-8,14-dioxo-15-oxa-4-thia-9,21,27,28-tetrazapentacyclo[17.5.2.1^2,5.1^9,13.0^22,26]octacosa-1(25),2,5(28),19,22(26),23-hexaen-7-yl]-3-methyl-butanamide] | 2500 | 52 | < 1 | 6440 | 34 | 2
9 | CC(C)[C@@H](C(=O)N[C@H]1Cc2cc(O)cc(c2)-c2ccc3c(C(C)(C)C#N)cn(c3c2)CC(C)(C)COC(=O)[C@@H]2CCCN(N2)C1=O)N1CCCC2(CCN(C(=O)CCl)C2)C1=O (stereo partly drawn) [RM351, reference compound] | 2100 | – | – | > 10000 | 1780 | 356
